From PMC10622841, “Structural analysis of a bacterial UDP-sugar 2-epimerase reveals the active site architecture before and after catalysis” (The Journal of Biological Chemistry, 2023)
Each block holds one molecule with its values, some of them ahead of it.

Experiments:
[1] = target: T1, T. thermophilus 2-epimerase (Thermus thermophilus, UniProt Q72KY0, D98N); experiment: X-ray crystallography; type: binding; settings: active site; pH 6.0-9.0; C- or N-terminal His tag
T1 construct: gene TT_C0285; full length, recombinant in E. coli Rosetta2(DE3); tag-free (rTEV-cut N-terminal His tag); homodimer, 82 kDa by gel filtration

[2] = target: T2, T. thermophilus 2-epimerase (Thermus thermophilus, UniProt Q72KY0); experiment: discontinuous anion-exchange HPLC assay; type: biochemical; settings: allosteric activator; substrate UDP-GlcNAc3NAcA, pH 8.0, 37 °C, 44 μM enzyme
T2 construct: gene TT_C0285; full length, recombinant in E. coli Rosetta2(DE3); tag-free (rTEV-cut N-terminal His tag); homodimer, 82 kDa by gel filtration
T2 sequence (Q72KY0 1-365): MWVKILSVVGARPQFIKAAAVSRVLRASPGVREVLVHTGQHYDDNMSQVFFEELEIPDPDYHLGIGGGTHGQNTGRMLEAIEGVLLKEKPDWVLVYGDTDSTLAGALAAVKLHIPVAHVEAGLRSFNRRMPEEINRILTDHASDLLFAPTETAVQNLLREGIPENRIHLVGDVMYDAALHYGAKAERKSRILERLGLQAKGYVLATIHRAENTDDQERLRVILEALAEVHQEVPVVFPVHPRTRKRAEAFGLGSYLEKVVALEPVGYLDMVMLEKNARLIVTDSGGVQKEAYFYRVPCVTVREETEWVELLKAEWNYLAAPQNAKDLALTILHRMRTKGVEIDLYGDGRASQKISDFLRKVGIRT

[3] = target: T1, T. thermophilus 2-epimerase; experiment: X-ray crystallography; HPLC and mass spectrometry of copurified ligand; type: binding; settings: with UDP-GlcNAc3NAcA in the active site, pH 6.0-9.0
[4] = target: T2, T. thermophilus 2-epimerase; experiment: X-ray crystallography; type: binding; settings: active site; formed from UDP-GlcNAc3NAcA during crystallization; pH 5.0 and 9.0; C-terminal His tag
[5] = target: T. thermophilus 2-epimerase, WT enzyme, tag-free (Thermus thermophilus HB27); experiment: SEC; gel-filtration chromatography against standards (beta-amylase, acetyl CoA synthase, carbonic anhydrase, cytochrome c); conditions not given

T1 sequence (Q72KY0 entry or part of it D98N): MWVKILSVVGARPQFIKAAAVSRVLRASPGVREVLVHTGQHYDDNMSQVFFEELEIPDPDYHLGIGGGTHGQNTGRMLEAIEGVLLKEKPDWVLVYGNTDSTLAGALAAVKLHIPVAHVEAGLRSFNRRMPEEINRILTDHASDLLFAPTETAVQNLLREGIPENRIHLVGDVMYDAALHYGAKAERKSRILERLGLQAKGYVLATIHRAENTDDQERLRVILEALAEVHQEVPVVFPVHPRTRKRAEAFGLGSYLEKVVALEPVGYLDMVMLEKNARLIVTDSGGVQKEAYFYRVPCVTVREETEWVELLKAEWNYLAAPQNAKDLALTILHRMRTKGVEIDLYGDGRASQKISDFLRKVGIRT

Molecule: CC(=O)N[C@H]1[C@@H](OP(=O)(O)OP(=O)(O)OC[C@H]2O[C@@H](n3ccc(=O)[nH]c3=O)[C@H](O)[C@@H]2O)O[C@H](C(=O)O)[C@@H](O)[C@@H]1NC(C)=O [UDP-GlcNAc3NAcA]
X-ray crystallography [1]: each subunit of the dimer contained both UDP-GlcNAc3NAcA in the active site and UDP-GlcNAc

Molecule: CC(=O)N[C@H]1[C@@H](OP(=O)(O)OP(=O)(O)OC[C@H]2O[C@@H](n3ccc(=O)[nH]c3=O)[C@H](O)[C@@H]2O)O[C@H](CO)[C@@H](O)[C@@H]1O [UDP-GlcNAc]
discontinuous anion-exchange HPLC assay [2]: the addition of UDP-GlcNAc was required for the reactions to proceed
X-ray crystallography; HPLC and mass spectrometry of copurified ligand ([3]; allosteric pocket): UDP-GlcNAc3NAcA in the active site and UDP-GlcNAc in the auxiliary binding pocket

Molecule: CC(=O)N[C@@H]1[C@@H](OP(=O)(O)OP(=O)(O)OC[C@H]2O[C@@H](n3ccc(=O)[nH]c3=O)[C@H](O)[C@@H]2O)O[C@H](C(=O)O)[C@@H](O)[C@@H]1NC(C)=O [UDP-ManNAc3NAcA]
X-ray crystallography [4]: the product, namely UDP-ManNAc3NAcA, was observed in each subunit

Molecule: O=c1ccn([C@@H]2O[C@H](COP(=O)(O)OP(=O)(O)O)[C@@H](O)[C@H]2O)c(=O)[nH]1 [UDP]
X-ray crystallography; HPLC and mass spectrometry of copurified ligand ([3]; allosteric (auxiliary) pocket): UDP-GlcNAc3NAcA was bound in the active site and UDP in the auxiliary binding pocket

stoichiometry N [5]: 2
Molecule: T. thermophilus 2-epimerase, WT enzyme, tag-free
